Experimental data reported in patent publication US10047096B2, “Substituted pyridobenzodiazepinone-derivatives and use thereof” (Bayer Pharma Aktiengesellschaft, priority 2014, dated 2018).
Structures can show the parent of a compound that is named as a salt.

Target: human PDGFRβ (Homo sapiens (Human), UniProt P09619)
Experiment: PDGFRβ kinase assay (PDGFRβ-HTRF)
Format: biochemical
Settings: 10 μM ATP, some mean values from multiple determinations
Outline: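 GST-fused human PDGFRβ fragment (R561-L1106) from Sf9 cells was preincubated 15 min with compound in 50 mM HEPES pH 7.5, 10 mM MgCl2, 2.5 mM DTT, 0.01% Triton X-100; substrate was biotinylated poly-Glu,Tyr (4:1).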

Chain of human PDGFRβ (P09619 561-1106): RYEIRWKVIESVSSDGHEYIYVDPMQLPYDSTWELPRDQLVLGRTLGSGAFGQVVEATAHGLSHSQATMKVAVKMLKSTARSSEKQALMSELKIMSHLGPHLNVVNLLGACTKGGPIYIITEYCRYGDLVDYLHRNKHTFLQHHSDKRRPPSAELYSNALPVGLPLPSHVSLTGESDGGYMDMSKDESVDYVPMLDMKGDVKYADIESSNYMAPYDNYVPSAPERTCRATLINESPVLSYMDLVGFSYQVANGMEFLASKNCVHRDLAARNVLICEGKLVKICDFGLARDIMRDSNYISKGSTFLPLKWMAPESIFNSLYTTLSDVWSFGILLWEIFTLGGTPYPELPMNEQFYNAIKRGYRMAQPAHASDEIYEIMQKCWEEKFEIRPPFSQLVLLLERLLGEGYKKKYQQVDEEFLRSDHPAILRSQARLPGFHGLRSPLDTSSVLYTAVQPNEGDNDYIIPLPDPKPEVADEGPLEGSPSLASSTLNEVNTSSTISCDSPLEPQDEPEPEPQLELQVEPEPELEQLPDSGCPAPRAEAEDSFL

Row | Structure (SMILES) | IC50 | IC50 (hydrochloride)
1 | Cc1ccc(O)cc1Nc1ccnc2c1C(=O)Nc1cc(CNCc3ccccc3)ccc1N2 [Example 145] | 5.82 nM | –
2 | N#Cc1ccc2c(c1)NC(=O)c1c(Nc3cc(O)c(Br)cc3F)ccnc1N2 [Example 7, 4-[(4-Bromo-2-fluoro-5-hydroxyphenyl)amino]-5-oxo-6,11-dihydro-5H-pyrido[2,3-b][1,5]benzodiazepine-8-carbonitrile] | 9.47 nM | –
3 | CCN(CCN(C)C)Cc1ccc2c(c1)NC(=O)c1c(Nc3cc(O)c(C)cc3F)ccnc1N2 [Example 199, 8-({[2-(Dimethylamino)ethyl](ethyl)amino}methyl)-4-[(2-fluoro-5-hydroxy-4-methylphenyl)amino]-6,11-dihydro-5H-pyrido[2,3-b][1,5]benzodiazepin-5-one] | 1.31 nM | –
4 | N#Cc1ccc2c(c1)NC(=O)c1c(Nc3cc(O)c(Cl)cc3Cl)ccnc1N2 [Example 10, 4-[(2,4-Dichloro-5-hydroxyphenyl)amino]-5-oxo-6,11-dihydro-5H-pyrido[2,3-b][1,5]benzodiazepine-8-carbonitrile] | 65.9 nM | –
5 | Cc1cc(F)c(Nc2ccnc3c2C(=O)Nc2cc(CN4CCC(CO)C4)ccc2N3)cc1O (racemic) [Example 177, rac-4-[(2-Fluoro-5-hydroxy-4-methylphenyl)amino]-8-{[3-(hydroxymethyl)pyrrolidin-1-yl]methyl}-6,11-dihydro-5H-pyrido[2,3-b][1,5]benzodiazepin-5-one] | 1.71 nM | –
6 | Cc1cc(F)c(Nc2ccnc3c2C(=O)Nc2cc(C(=O)N4CCCC(O)C4)ccc2N3)cc1O (racemic) [Example 82, rac-4-[(2-Fluoro-5-hydroxy-4-methylphenyl)amino]-8-[(3-hydroxypiperidin-1-yl)carbonyl]-6, 11-dihydro-5H-pyrido[2,3-b][1,5]benzodiazepin-5-one] | 10.1 nM | –
7 | CCN(Cc1ccc2c(c1)NC(=O)c1c(Nc3cc(O)c(C)cc3F)ccnc1N2)CC(C)O (racemic) [Example 204, rac-8-{[Ethyl(2-hydroxypropyl)amino]methyl}-4-[(2-fluoro-5-hydroxy-4-methylphenyl)amino]-6,11-dihydro-5H-pyrido[2,3-b][1,5]benzodiazepin-5-one] | 1.71 nM | –
8 | Cc1ccc(O)cc1Nc1ccnc2c1C(=O)Nc1cc(CNC[C@H](C)c3ccccc3)ccc1N2 [Example 117] | 3.46 nM | –
9 | Cc1cc(F)c(Nc2ccnc3c2C(=O)Nc2cc(CNC4CC(F)(F)C4)ccc2N3)cc1O [Example 189, 8-{[(3,3-Difluorocyclobutyl)amino]methyl}-4-[(2-fluoro-5-hydroxy-4-methylphenyl)amino]-6,11-dihydro-5H-pyrido[2,3-b][1,5]benzodiazepin-5-one] | 2.01 nM | –
10 | Cc1cc(F)c(Nc2ccnc3c2C(=O)Nc2cc(CN4CCCC(C(N)=O)C4)ccc2N3)cc1O (racemic) [Example 57, rac-1-({4-[(2-Fluoro-5-hydroxy-4-methylphenyl)amino]-5-oxo-6,11-dihydro-5H-pyrido[2,3-b][1,5]benzodiazepin-8-yl}methyl)piperidine-3-carboxamide] | 1.66 nM | –
11 | N#Cc1ccc2c(c1)NC(=O)c1c(Nc3cc(O)c(Cl)cc3F)ccnc1N2 [Example 37, 4-[(4-chloro-2-fluoro-5-hydroxyphenyl)amino]-5-oxo-6,11-dihydro-5H-pyrido[2,3-b][1,5]benzodiazepine-8-carbonitrile] | 4.6 nM | –
12 | Cc1cc(F)c(Nc2ccnc3c2C(=O)Nc2cc(CN4CCC(C)C(O)C4)ccc2N3)cc1O (centres unmarked) [Example 59, 4-[(2-Fluoro-5-hydroxy-4-methylphenyl)amino]-8-[(3-hydroxy-4-methylpiperidin-1-yl)methyl]-6,11-dihydro-5H-pyrido[2,3-b][1,5]benzodiazepin-5-one] | 1.82 nM | –

Other lines, results leading:

Row | IC50 | IC50 (hydrochloride) | Structure (SMILES)
13 | 1.31 nM | – | Cc1cc(F)c(Nc2ccnc3c2C(=O)Nc2cc(CNCCO)ccc2N3)cc1O [Example 167, 4-[(2-Fluoro-5-hydroxy-4-methylphenyl)amino]-8-{[(2-hydroxyethyl)amino]methyl}-6,11-dihydro-5H-pyrido[2,3-b][1,5]benzodiazepin-5-one]
14 | 3.82 nM | – | Cc1ccc(Nc2ccnc3c2C(=O)Nc2cc(C#N)ccc2N3)cc1O [Example 3, 4-[(3-Hydroxy-4-methylphenyl)amino]-5-oxo-6,11-dihydro-5H-pyrido[2,3-b][1,5]benzodiazepine-8-carbonitrile]
15 | 1.76 nM | – | CCN(Cc1ccc2c(c1)NC(=O)c1c(Nc3cc(O)c(C)cc3F)ccnc1N2)CC(C)O (single isomer, unassigned; ent-8) [Example 205, ent-8-{[Ethyl(2-hydroxypropyl)amino]methyl}-4-[(2-fluoro-5-hydroxy-4-methylphenyl)amino]-6,11-dihydro-5H-pyrido[2,3-b][1,5]benzodiazepin-5-one (Enantiomer 1)]
16 | – | 3.22 nM | CCN(CC)Cc1ccc2c(c1)NC(=O)c1c(Nc3cc(O)c(C)cc3F)ccnc1N2 [Example 193, 8-[(Diethylamino)methyl]-4-[(2-fluoro-5-hydroxy-4-methylphenyl)amino]-6,11-dihydro-5H-pyrido[2,3-b][1,5]benzodiazepin-5-one hydrochloride]
17 | 1.75 nM | – | Cc1cc(F)c(Nc2ccnc3c2C(=O)Nc2cc(CNC4CCC4)ccc2N3)cc1O [Example 188, 8-[(Cyclobutylamino)methyl]-4-[(2-fluoro-5-hydroxy-4-methylphenyl)amino]-6,11-dihydro-5H-pyrido[2,3-b][1,5]benzodiazepin-5-one]
18 | 1.95 nM | – | Cc1ccc(O)cc1Nc1ccnc2c1C(=O)Nc1cc(CNCc3ccc(Cl)nc3)ccc1N2 [Example 95]
19 | 52.9 nM | – | Cc1ccc(O)cc1Nc1ccnc2c1C(=O)Nc1cc(CNc3ccccc3F)ccc1N2 [Example 147]
20 | 12.6 nM | – | N#Cc1ccc2c(c1)NC(=O)c1c(Nc3cccc(O)c3)ccnc1N2 [Example 35, 4-[(3-Hydroxyphenyl)amino]-5-oxo-6,11-dihydro-5H-pyrido[2,3-b][1,5]benzodiazepine-8-carbonitrile]
21 | 2.11 nM | – | Cc1ccc(O)cc1Nc1ccnc2c1C(=O)Nc1cc(CNCC(C)(C)C)ccc1N2 [Example 142]
22 | 2.84 nM | – | CNCc1ccc2c(c1)NC(=O)c1c(Nc3cc(O)ccc3C)ccnc1N2 [Example 22, 4-[(5-Hydroxy-2-methylphenyl)amino]-8-[(methylamino)methyl]-6,11-dihydro-5H-pyrido[2,3-b][1,5]benzodiazepin-5-one]
23 | 3.39 nM | – | Cc1cc(F)c(Nc2ccnc3c2C(=O)Nc2cc(CN4CC[C@@H](N(C)C)C4)ccc2N3)cc1O [Example 217, 8-{[(3R)-3-(Dimethylamino)pyrrolidin-1-yl]methyl}-4-[(2-fluoro-5-hydroxy-4-methylphenyl)amino]-6,11-dihydro-5H-pyrido[2,3-b][1,5]benzodiazepin-5-one]
24 | 7.72 nM | – | Cc1ccc(O)cc1Nc1ccnc2c1C(=O)Nc1cc(CNCC(C)(C)N(C)C)ccc1N2 [Example 144]
25 | 9.38 nM | – | Cc1cc(F)c(Nc2ccnc3c2C(=O)Nc2cc(CN4CC(=O)N(C(C)C)C(C)(C)C4)ccc2N3)cc1O [Example 196, 4-[(2-Fluoro-5-hydroxy-4-methylphenyl)amino]-8-[(4-isopropyl-3,3-dimethyl-5-oxopiperazin-1-yl)methyl]-6,11-dihydro-5H-pyrido[2,3-b][1,5]benzodiazepin-5-one]
26 | 1.06 nM | – | Cc1cc(F)c(Nc2ccnc3c2C(=O)Nc2cc(CN4CCC(N)CC4)ccc2N3)cc1O [Example 218, 8-[(4-Aminopiperidin-1-yl)methyl]-4-[(2-fluoro-5-hydroxy-4-methylphenyl)amino]-6,11-dihydro-5H-pyrido[2,3-b][1,5]benzodiazepin-5-one]
